# Measured values: ChEMBL document CHEMBL1146737, “Discovery of a potent and selective alpha v beta 3 integrin antagonist with strong inhibitory activity against neointima formation in rat balloon injury model” (Bioorg Med Chem Lett, 2004)
# Where “and” joins values, the source holds several entries; their conditions need not be identical. Identical values can stand only once.
# Key:
# Homo sapiens = species: Homo sapiens; test: Inhibition of human vascular smooth muscle proliferation was determined; type: functional; conditions: Muscle tissue
# [1] = molecular target: Integrin alpha-IIb/beta-3 (Homo sapiens, UniProt P05106+P08514); test: Inhibitory activity was determined against human alpha IIb beta3 integrin; type: protein-complex assay
# [2] = molecular target: Integrin alpha-V/beta-3 and alpha-IIb/beta 3 (Homo sapiens) (UniProt P05106+P06756+P08514); test: Ratio of inhibitory activity against human alpha V beta-3 integrin to that of alpha IIb beta-3 integrin; type: protein assay
# Rattus norvegicus [3] = test: Antistenoic effect infused subcutaneously at a constant rate of 1.3 umol/rat/day; type: functional
# Rattus norvegicus [4] = test: Ratio of Intima area to media area was tested by subcutaneous infusion of compound at a constant rate of 1.3 umol/rat/day; type: functional
# Rattus norvegicus [5] = test: Antistenoic effect infused subcutaneously at a constant rate of 0.14 umol/rat/day; type: functional
# Rattus norvegicus [6] = test: Antistenoic effect infused subcutaneously at a constant rate of 0.43 umol/rat/day; type: functional
# Integrin alpha-V/beta-3 = Integrin alpha-V/beta-3 (Homo sapiens, UniProt P05106+P06756); test: Inhibitory activity was determined against human vitronectin receptor (alpha V beta 3); type: protein-complex assay
# Sequence of Integrin alpha-V/beta-3 (P05106 27-788 limits assumed): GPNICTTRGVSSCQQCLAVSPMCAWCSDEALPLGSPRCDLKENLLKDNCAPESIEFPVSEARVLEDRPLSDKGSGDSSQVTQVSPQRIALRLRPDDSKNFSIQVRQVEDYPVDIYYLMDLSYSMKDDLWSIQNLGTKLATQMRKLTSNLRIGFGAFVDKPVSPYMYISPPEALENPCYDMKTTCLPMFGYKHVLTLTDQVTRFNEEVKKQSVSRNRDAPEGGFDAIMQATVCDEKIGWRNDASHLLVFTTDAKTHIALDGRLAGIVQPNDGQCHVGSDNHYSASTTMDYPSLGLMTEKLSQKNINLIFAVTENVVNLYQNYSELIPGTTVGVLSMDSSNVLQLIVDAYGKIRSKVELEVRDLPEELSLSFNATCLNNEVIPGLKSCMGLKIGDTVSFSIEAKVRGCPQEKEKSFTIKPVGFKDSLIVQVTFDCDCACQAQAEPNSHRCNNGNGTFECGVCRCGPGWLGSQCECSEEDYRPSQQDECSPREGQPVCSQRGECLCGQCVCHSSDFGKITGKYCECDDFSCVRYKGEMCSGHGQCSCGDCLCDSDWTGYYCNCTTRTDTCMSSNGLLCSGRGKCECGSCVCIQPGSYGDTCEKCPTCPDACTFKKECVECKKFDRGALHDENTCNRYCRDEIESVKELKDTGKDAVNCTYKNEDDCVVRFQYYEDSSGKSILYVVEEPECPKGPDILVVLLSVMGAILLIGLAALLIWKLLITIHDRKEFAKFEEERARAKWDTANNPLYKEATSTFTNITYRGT
# Sequence of Integrin alpha-V/beta-3 (P06756 31-889 limits assumed): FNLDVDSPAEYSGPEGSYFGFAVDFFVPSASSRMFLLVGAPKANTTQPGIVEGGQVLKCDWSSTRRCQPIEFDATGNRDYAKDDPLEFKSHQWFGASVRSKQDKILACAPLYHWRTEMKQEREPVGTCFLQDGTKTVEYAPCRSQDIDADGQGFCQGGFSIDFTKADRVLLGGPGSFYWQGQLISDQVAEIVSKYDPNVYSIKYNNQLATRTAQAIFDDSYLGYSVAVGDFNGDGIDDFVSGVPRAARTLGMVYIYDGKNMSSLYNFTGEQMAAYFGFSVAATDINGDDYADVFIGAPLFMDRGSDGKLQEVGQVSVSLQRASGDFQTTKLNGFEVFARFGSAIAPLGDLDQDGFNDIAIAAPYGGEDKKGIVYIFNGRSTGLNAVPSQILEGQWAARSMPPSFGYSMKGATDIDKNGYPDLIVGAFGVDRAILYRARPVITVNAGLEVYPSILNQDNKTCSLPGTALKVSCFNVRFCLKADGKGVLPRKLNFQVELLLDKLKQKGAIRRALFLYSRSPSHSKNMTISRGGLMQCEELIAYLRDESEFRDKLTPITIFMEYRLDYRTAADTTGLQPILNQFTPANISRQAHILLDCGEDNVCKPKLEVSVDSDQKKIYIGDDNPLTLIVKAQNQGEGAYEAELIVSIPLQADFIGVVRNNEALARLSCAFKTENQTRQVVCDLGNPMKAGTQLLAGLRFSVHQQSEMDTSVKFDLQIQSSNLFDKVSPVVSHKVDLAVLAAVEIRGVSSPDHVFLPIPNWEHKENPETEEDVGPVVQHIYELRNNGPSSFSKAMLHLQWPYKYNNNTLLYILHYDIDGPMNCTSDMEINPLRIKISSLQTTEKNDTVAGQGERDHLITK
# Sequence of Integrin alpha-V/beta-3 (P06756 891-1048 limits assumed): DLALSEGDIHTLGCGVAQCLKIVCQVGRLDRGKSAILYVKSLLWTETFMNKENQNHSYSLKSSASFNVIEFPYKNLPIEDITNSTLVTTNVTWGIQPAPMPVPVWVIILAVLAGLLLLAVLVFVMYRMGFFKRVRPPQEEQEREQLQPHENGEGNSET
# Sequence of Integrin alpha-IIb/beta-3 (P05106 27-788 limits assumed): as the sequence (P05106 27-788 limits assumed) above
# Sequence of Integrin alpha-IIb/beta-3 (P08514 32-887 limits assumed): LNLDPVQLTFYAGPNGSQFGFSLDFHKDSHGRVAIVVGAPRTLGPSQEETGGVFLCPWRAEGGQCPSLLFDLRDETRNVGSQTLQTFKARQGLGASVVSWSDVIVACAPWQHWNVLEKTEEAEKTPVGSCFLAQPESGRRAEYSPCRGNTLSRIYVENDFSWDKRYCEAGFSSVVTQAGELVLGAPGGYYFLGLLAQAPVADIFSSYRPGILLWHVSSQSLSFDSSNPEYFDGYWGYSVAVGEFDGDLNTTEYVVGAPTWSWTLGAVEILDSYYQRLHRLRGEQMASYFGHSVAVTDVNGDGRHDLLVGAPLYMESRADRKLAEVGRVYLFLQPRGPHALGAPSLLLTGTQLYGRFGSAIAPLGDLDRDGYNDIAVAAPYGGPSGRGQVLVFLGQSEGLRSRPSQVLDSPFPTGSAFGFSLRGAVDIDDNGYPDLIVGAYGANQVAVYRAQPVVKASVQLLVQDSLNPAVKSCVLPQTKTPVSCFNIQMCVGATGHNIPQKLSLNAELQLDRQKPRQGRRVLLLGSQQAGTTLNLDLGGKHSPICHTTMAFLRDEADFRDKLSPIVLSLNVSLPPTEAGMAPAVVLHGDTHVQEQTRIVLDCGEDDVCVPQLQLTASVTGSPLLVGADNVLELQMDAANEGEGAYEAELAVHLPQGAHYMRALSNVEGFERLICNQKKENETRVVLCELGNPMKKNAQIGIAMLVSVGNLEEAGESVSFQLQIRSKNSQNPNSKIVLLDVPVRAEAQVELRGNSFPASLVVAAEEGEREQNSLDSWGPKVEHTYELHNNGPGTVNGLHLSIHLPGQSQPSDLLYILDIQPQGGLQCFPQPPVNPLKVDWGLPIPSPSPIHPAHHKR
# Sequence of Integrin alpha-IIb/beta-3 (P08514 891-1039 limits assumed): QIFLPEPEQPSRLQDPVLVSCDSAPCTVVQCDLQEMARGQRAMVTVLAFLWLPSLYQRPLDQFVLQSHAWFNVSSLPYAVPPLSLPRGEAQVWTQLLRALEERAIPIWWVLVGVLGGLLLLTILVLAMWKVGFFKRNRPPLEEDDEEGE
IC50 [1] [nM],Ratio [2],IC50 (Integrin alpha-V/beta-3) [nM],Structure (SMILES),IC50 (Homo sapiens) [nM],Inhibition (Rattus norvegicus [3]),Intima area (Rattus norvegicus [3]),intima/media ratio (Rattus norvegicus [4]),Inhibition (Rattus norvegicus [5]) [%],Inhibition (Rattus norvegicus [6]) [%]
> 1000,> 18000,,O=C(N[C@@H](CCC(=O)N1CCN(c2cccc(NC3=NCCCCN3)c2)CC1)C(=O)O)OCc1ccccc1,1700,,,,,
,8600,,O=C(N[C@@H](CCC(=O)N1CCN(c2cccc(NC3=NCC(F)CN3)c2)CC1)C(=O)O)OCc1ccccc1 (stereo partly specified),260,38% and 34%,113 10e3 um2 and 149 10e3 um2,0.76,,
,4500,,O=C(N[C@@H](CCC(=O)N1CCN(c2cccc(NC3=NCCN3)c2)CC1)C(=O)O)OCc1ccccc1,3000,,,,,
> 1000,> 3100,,CC(C)COC(=O)N[C@@H](CCC(=O)N1CCN(c2cccc(NC3=NCCCN3)c2)CC1)C(=O)O,910,,,,,
> 1000,> 18000,,CC(C)COC(=O)N[C@@H](CCC(=O)N1CCN(c2cccc(NC3=NCC(F)CN3)c2)CC1)C(=O)O (stereo partly specified),180,54% and 53%,81 10e3 um2 and 162 10e3 um2,0.5,21,38
88,63,1.4,O=C(O)[C@H](CCC(=O)N1CCN(c2cccc(NC3=NCCCN3)c2)CC1)NS(=O)(=O)c1ccccc1,> 10000,,,,,
660,11000,0.058,O=C(N[C@@H](CCC(=O)N1CCN(c2cccc(NC3=NCCCN3)c2)CC1)C(=O)O)OCc1ccccc1,1100,,,,,
> 1000,> 280,,CCNC(=O)N[C@@H](CCC(=O)N1CCN(c2cccc(NC3=NCCCN3)c2)CC1)C(=O)O,> 10000,,,,,
> 1000,> 33000,,CC(C)COC(=O)N[C@@H](CCC(=O)N1CCN(c2cccc(NC3=NCC(O)CN3)c2)CC1)C(=O)O (stereo partly specified),2000,,,,,
> 1000,> 150,,O=C(Cc1ccccc1)N[C@@H](CCC(=O)N1CCN(c2cccc(NC3=NCCCN3)c2)CC1)C(=O)O,> 10000,,,,,
,2300,,O=C(N[C@@H](CCC(=O)N1CCN(c2cccc(NC3=NCC(O)CN3)c2)CC1)C(=O)O)OCc1ccccc1 (stereo partly specified),3500,,,,,
,140,,Cc1cc(C)c(S(=O)(=O)N[C@@H](CCC(=O)N2CCN(c3cccc(NC4=NCCCN4)c3)CC2)C(=O)O)c(C)c1,> 10000,,,,,
> 1000,> 1700,,CCOC(=O)N[C@@H](CCC(=O)N1CCN(c2cccc(NC3=NCCCN3)c2)CC1)C(=O)O,2100,,,,,
> 1000,> 710,,O=C(NCc1ccccc1)N[C@@H](CCC(=O)N1CCN(c2cccc(NC3=NCCCN3)c2)CC1)C(=O)O,> 10000,,,,,
> 1000,> 2600,,CC(C)COC(=O)N[C@@H](CCC(=O)N1CCN(c2cccc(NC3=NCC(C)(C)CN3)c2)CC1)C(=O)O,3400,,,,,
